Data taken from PubChem BioAssay (NCI).
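A five-concentration, 48-hour dose response in 96-well plates underlies each endpoint, interpolated linearly between surrounding concentrations. At the TGI there is no net growth.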

Columns and labels:
Assay in all cases: inhibition of tumour cell growth, NCI panel, 48 h
UACC-62 melanoma = system: UACC-62 melanoma
T-47D breast = system: T-47D breast
RPMI-8226 leukemia = system: RPMI-8226 leukemia
NCI-H522 lung = system: NCI-H522 lung
RXF 393 renal = system: RXF 393 renal
SN12C renal = system: SN12C renal
HL-60(TB) leukemia = system: HL-60(TB) leukemia
MOLT-4 leukemia = system: MOLT-4 leukemia
SK-MEL-28 melanoma = system: SK-MEL-28 melanoma
CCRF-CEM leukemia = system: CCRF-CEM leukemia

| SMILES | TGI (UACC-62 melanoma) | TGI (T-47D breast) | TGI (RPMI-8226 leukemia) | TGI (NCI-H522 lung) | TGI (RXF 393 renal) | TGI (SN12C renal) | TGI (HL-60(TB) leukemia) | TGI (MOLT-4 leukemia) | TGI (SK-MEL-28 melanoma) | TGI (CCRF-CEM leukemia) |
| --- | --- | --- | --- | --- | --- | --- | --- | --- | --- | --- |
| CC1CC[C@@]2(OC1)O[C@H]1C[C@H]3[C@@H]4CC[C@H]5C[C@@H](OC6OC(CO)C(OC7OC(CO)C(OC8OC(CO)C(O)C(OC9OC(C)C(OC%10OC(C)C(O)C(O)C%10O)C(O)C9O)C8OC8OCC(O)C(O)C8O)C(O)C7O)C(O)C6O)CC[C@]5(C)[C@H]4CC(=O)[C@]3(C)[C@H]1[C@@H]2C (stereo not given in full) | 32.8 µM | 43.2 µM | 33.3 µM | 42.4 µM | 35.7 µM | 40.9 µM | 27.6 µM | 34.6 µM | 34.3 µM | 29.2 µM |
| C=CC(C)(C)N[C@@H](C(=O)N1CCC[C@H]1c1nc(-c2nc(C(=O)OCC=C(C)C)c(C)o2)c(C)o1)C(C)C | 38.6 µM | 73.4 µM | 61.8 µM | 35.6 µM | 91.8 µM | 39.2 µM | 93.9 µM | 36.9 µM | 38.2 µM | 41.8 µM |
| CCOC(=O)CCc1c(C(=O)OCC)[nH]c(/C=C2\NC(=O)C(C)=C2CC)c1C | 44.9 µM | 26 µM | > 100 µM | 30.7 µM | 49 µM | > 100 µM | > 100 µM | > 100 µM | > 100 µM | > 100 µM |
| COc1ccc(-c2nc(-c3cc4ccccc4oc3=O)cs2)cc1 | > 100 µM | > 100 µM | > 100 µM | > 100 µM | > 100 µM | > 100 µM | > 100 µM | > 100 µM | > 100 µM | > 100 µM |
| CC(C)(C)n1c(=O)n(C(=O)C(Cl)(Cl)Cl)n(C(=O)C(Cl)(Cl)Cl)c1=O | > 100 µM | > 100 µM | > 100 µM | > 100 µM | > 100 µM | > 100 µM | > 100 µM | > 100 µM | > 100 µM | > 100 µM |
| COc1ccc(C(=C(I)c2ccccc2)c2ccc(OC)cc2)cc1 | > 100 µM | > 100 µM | > 100 µM | > 100 µM | > 100 µM | > 100 µM | > 100 µM | > 100 µM | > 100 µM | > 100 µM |
| O=C(c1ccccc1)c1c(C(F)(F)F)n([O-])c2cc(Cl)c(Cl)cc2[n+]1=O | 8.28 µM | 3.03 µM | 1.15 µM | 1.08 µM | 5.52 µM | 1.87 µM | 2.06 µM | 1.56 µM | 7.19 µM | 3.7 µM |
| O=C1C=C2CO[C@H]3OC[C@H](O)[C@@H]1[C@@H]23 | > 100 µM | 67.3 µM | 44.8 µM | 33.1 µM | 42 µM | 90 µM | 76.1 µM | > 100 µM | > 100 µM | 66.8 µM |
| O=c1c2ccccc2n2nnc3ccc(NCCCNCCNCCCNc4ccc5nnn6c7ccccc7c(=O)c4c56)c1c32 | > 50 µM | > 50 µM | > 12.4 µM | 9.84 µM | 22.6 µM | 7.49 µM | 23.5 µM | > 21.2 µM | > 39.3 µM | > 50 µM |
